Experimental data reported in patent US6814959B1, “UV radiation reflecting or absorbing agents, protecting against harmful UV radiation and reinforcing the natural skin barrier” (PharmaSol GmbH, priority 1999, dated 2004).

experiment: UV absorption of diluted aqueous dispersions in UV spectrophotometer; assay type: physicochemical; details: pure lipid solution in 96% ethanol or aqueous surfactant solution of the same concentration; 250-450 nm
Text: The UV-blocking action of the agent was studied by measuring the UV absorption of the lipid particle dispersion in a UV spectrophotometer. The criterion was the reduced permeability of the lipid particle dispersion for UV radiation in the wavelength range up 280 nm (UV C), from 280 nm to 315 nm (=UV B) und from 315 nm to 400 nm (UV A). A further test to quantify the UV-blocking action was the determination of the reduced permeability of particle films using the standard test with Transpore™ tape (B. L. Diffey, P. M. Farr, Sunscreen protection against UVB, UVA and blue light; an in vivo and in vitro comparison, British Journal of Dermatology 124, 1991, 258-263). The particle films were produced by spreading the particle dispersion on Transpore™ tape and then air-drying. The films thus produced were then glued onto one side of a quartz cuvette and the UV permeability was determined by a photometer. The measurements took place against the corresponding references, e.g. O/W emulsion with the same lipid content as well as UV blockers incorporated into the oil phase of an emulsion.
A lipid particle dispersion consisting of 10% (m/m) cetyl palmitate, 1.2% (m/m) polyglycerol methylglucose distearate (Tego Care 450) and water was produced by high pressure homogenization. The mixture of lipid and emulsifier was melted at 75° C. and dispersed in the aqueous solution with an Ultra-Turrax T25 with dispersing tool S25, Janke und Kunkel (8000 rpm for 1 minute). The obtained pre-emulsion was then homogenized with an APV Gaulin LAB 40 homogenizer at 500 bar with 3 cycles at 75° C. Lipid particles resulted with a PCS diameter of 221 nm and a polydispersity index of 0.06. For comparison, an emulsion system was produced in which the 10% cetyl palmitate was replaced by 10% Miglyol 812. The production parameter was dispersion with the Ultra-Turrax (8000 rpm for 1 minute). The UV-blocking action was examined with a Uvikon 940 spectrophotometer, Kontron, in the wavelength range of 250-450 nm. […]

Compound	absorption over the whole measurement range
CCCCCCCCCCCCCCCCOC(=O)CCCCCCCCCCCCCCC [cetyl palmitate]	did not absorb
CCCCCCCCCCCCCCCCCCO [stearyl alcohol]	did not absorb
polyglycerol methylglucose distearate [Tego Care 450]	did not absorb
